Results reported in patent US20250120989A1, “BRIDGED TRICYCLIC CARBAMOYLPYRIDONE COMPOUNDS AND USES THEREOF” (priority 2023, published 2025).
≈ marks a conversion by molar mass, not a printed value.

Experiments:
in vitro = conditions: human; for CC50 at 5 days: uninfected MT-4 cells
HIV-1 (IIIB) = assay: microbe, parasite or virus in culture; format: cell-based; conditions: Human immunodeficiency virus 1, MT4, 120 h; HIV-1 (IIIB) replication in MT-4 cells, 5 days, Cell Titer Glo; read-out: MT4 EC50
physchem = conditions: 23 °C, thermodynamic from solid; for solubility thermodynamic at 24 h: FaSSIF

SMILES	CC50 at 5 days (in vitro) [µM]	EC50 (HIV-1 (IIIB)) [µM]	solubility thermodynamic at 24 h (physchem) [µg/mL]	CC50 (in vitro) [µM]	solubility thermodynamic (physchem; fassif) [µg/mL]
CC1=NO[C@@]2(CC[C@H](C)N3C[C@H]2n2cc(C(=O)NCc4ccc(F)cc4F)c(=O)c(OCOC(=O)OCCOP(=O)(O)O)c2C3=O)C1 [Compound 4, (((3′S,5S,7′R)-10′-((2,4-difluorobenzyl)carbamoyl)-3,3′-dimethyl-1′,11′-dioxo-1′,4′,5′,11′-tetrahydro-3′H,4H,7′H-spiro[isoxazole-5,6′-[2,7]methanopyrido[1,2-a][1,4]diazonin]-12′-yl)oxy)methyl (2-(phosphonooxy)ethyl) carbonate]	11.6	0.00095	4300 (≈ 6.28 mM)		
COC1=NO[C@@]2(CC[C@H](C)N3C[C@H]2n2cc(C(=O)NCc4ccc(F)cc4F)c(=O)c(OCOC(=O)OCCN(CC(=O)O)C(=O)OCOP(=O)(O)O)c2C3=O)C1 [Compound 8, N-(2-((((((3′S,5S,7′R)-10′-((2,4-difluorobenzyl)carbamoyl)-3-methoxy-3′-methyl-1′,11′-dioxo-1′,4′,5′,11′-tetrahydro-3′H,4H,7′H-spiro[isoxazole-5,6′-[2,7]methanopyrido[1,2-a][1,4]diazonin]-12′-yl)oxy)methoxy)carbonyl)oxy)ethyl)-N-(((phosphonooxy)methoxy)carbonyl)glycine]	17.8	0.00204	3020 (≈ 3.63 mM)		
CC1=NO[C@@]2(CC[C@H](C)N3C[C@H]2n2cc(C(=O)NCc4ccc(F)cc4F)c(=O)c(OCOC(=O)OCC(C)(C)COP(=O)(O)O)c2C3=O)C1 [Compound 12, (((3′S,5S,7′R)-10′-((2,4-difluorobenzyl)carbamoyl)-3,3′-dimethyl-1′,11′-dioxo-1′,4′,5′,11′-tetrahydro-3′H,4H,7′H-spiro[isoxazole-5,6′-[2,7]methanopyrido[1,2-a][1,4]diazonin]-12′-yl)oxy)methyl (2,2-dimethyl-3-(phosphonooxy)propyl) carbonate]	14	0.00201	5280 (≈ 7.27 mM)		
CC1=NO[C@@]2(CC[C@H](C)N3C[C@H]2n2cc(C(=O)NCc4ccc(F)cc4F)c(=O)c(OC(=O)OCC(C)(C)COP(=O)(O)O)c2C3=O)C1 [Compound 13, (3′S,5S,7′R)-10′-((2,4-difluorobenzyl)carbamoyl)-3,3′-dimethyl-1′,11′-dioxo-1′,4′,5′,11′-tetrahydro-3′H,4H,7′H-spiro[isoxazole-5,6′-[2,7]methanopyrido[1,2-a][1,4]diazonin]-12′-yl (2,2-dimethyl-3-(phosphonooxy)propyl) carbonate]	14	0.00198	4380 (≈ 6.29 mM)		
CC1=NO[C@@]2(CC[C@H](C)N3C[C@H]2n2cc(C(=O)NCc4ccc(F)cc4F)c(=O)c(OCOC(=O)OCC[N+](C)(C)C)c2C3=O)C1 [Compound 15, 2-((((((3′S,5S,7′R)-10′-((2,4-difluorobenzyl)carbamoyl)-3,3′-dimethyl-1′,11′-dioxo-1′,4′,5′,11′-tetrahydro-3′H,4H,7′H-spiro[isoxazole-5,6′-[2,7]methanopyrido[1,2-a][1,4]diazonin]-12′-yl)oxy)methoxy)carbonyl)oxy)-N,N,Ntrimethylethan-1-aminium trifluoroacetic acid]	17.3		4370		
CC1=NO[C@@]2(CC[C@H](C)N3C[C@H]2n2cc(C(=O)NCc4ccc(F)cc4F)c(=O)c(OC(=O)OCC[N+](C)(C)C)c2C3=O)C1 [Compound 16, 2-(((((3′S,5S,7′R)-10′-((2,4-difluorobenzyl)carbamoyl)-3,3′-dimethyl-1′,11′-dioxo-1′,4′,5′,11′-tetrahydro-3′H,4H,7′H-spiro[isoxazole-5,6′-[2,7]methanopyrido[1,2-a][1,4]diazonin]-12′-yl)oxy)carbonyl)oxy)-N,N,N-trimethylethan-1-aminium trifluoroacetic acid]	14.1		2230		
CC1=NO[C@@]2(CC[C@H](C)N3C[C@H]2n2cc(C(=O)NCc4ccc(F)cc4F)c(=O)c(OCOC(=O)OC[C@H](C)OP(=O)(O)O)c2C3=O)C1 [Compound 17, (((3′S,5S,7′R)-10′-((2,4-difluorobenzyl)carbamoyl)-3,3′-dimethyl-1′,11′-dioxo-1′,4′,5′,11′-tetrahydro-3′H,4H,7′H-spiro[isoxazole-5,6′-[2,7]methanopyrido[1,2-a][1,4]diazonin]-12′-yl)oxy)methyl ((S)-2-(phosphonooxy)propyl) carbonate]	13.7	0.00205	4590 (≈ 6.57 mM)		
CC1=NO[C@@]2(CC[C@H](C)N3C[C@H]2n2cc(C(=O)NCc4ccc(F)cc4F)c(=O)c(OCOC(=O)O[C@@H](C)COP(=O)(O)O)c2C3=O)C1 [Compound 19, (((3′S,5S,7′R)-10′-((2,4-difluorobenzyl)carbamoyl)-3,3′-dimethyl-1′,11′-dioxo-1′,4′,5′,11′-tetrahydro-3′H,4H,7′H-spiro[isoxazole-5,6′-[2,7]methanopyrido[1,2-a][1,4]diazonin]-12′-yl)oxy)methyl ((S)-1-(phosphonooxy)propan-2-yl) carbonate]	12.2	0.00235	5060 (≈ 7.24 mM)		
CC1=NO[C@@]2(CC[C@H](C)N3C[C@H]2n2cc(C(=O)NCc4ccc(F)cc4F)c(=O)c(OCOC(=O)N(C)CCN(CC(=O)O)C(=O)OCOP(=O)(O)O)c2C3=O)C1 [Compound 21, N-(2-((((((3′S,5S,7′R)-10′-((2,4-difluorobenzyl)carbamoyl)-3,3′-dimethyl-1′,11′-dioxo-1′,4′,5′,11′-tetrahydro-3′H,4H,7′H-spiro[isoxazole-5,6′-[2,7]methanopyrido[1,2-a][1,4]diazonin]-12′-yl)oxy)methoxy)carbonyl)(methyl)amino)ethyl)-N-(((phosphonooxy)methoxy)carbonyl)glycine]	15.2	0.0015	5040 (≈ 6.08 mM)		
CC1=NO[C@@]2(CC[C@H](C)N3C[C@H]2n2cc(C(=O)NCc4ccc(F)cc4F)c(=O)c(OCOC(=O)OC[C@@H](C)OP(=O)(O)O)c2C3=O)C1 [Compound 22, (((3′S,5S,7′R)-10′-((2,4-difluorobenzyl)carbamoyl)-3,3′-dimethyl-1′,11′-dioxo-1′,4′,5′,11′-tetrahydro-3′H,4H,7′H-spiro[isoxazole-5,6′-[2,7]methanopyrido[1,2-a][1,4]diazonin]-12′-yl)oxy)methyl ((R)-2-(phosphonooxy)propyl) carbonate]	9.78	0.00193	4180 (≈ 5.99 mM)		
COC1=NO[C@@]2(CC[C@H](C)N3C[C@H]2n2cc(C(=O)NCc4ccc(F)cc4F)c(=O)c(OCOC(=O)OC[C@H](C)OP(=O)(O)O)c2C3=O)C1 [Compound 23, (((3′S,5S,7′R)-10′-((2,4-difluorobenzyl)carbamoyl)-3-methoxy-3′-methyl-1′,11′-dioxo-1′,4′,5′,11′-tetrahydro-3′H,4H,7′H-spiro[isoxazole-5,6′-[2,7]methanopyrido[1,2-a][1,4]diazonin]-12′-yl)oxy)methyl ((S)-2-(phosphonooxy)propyl) carbonate]	14.8	0.00233	4400 (≈ 6.16 mM)		
COC1=NO[C@@]2(CC[C@H](C)N3C[C@H]2n2cc(C(=O)NCc4ccc(F)cc4F)c(=O)c(OCOC(=O)O[C@@H](C)COP(=O)(O)O)c2C3=O)C1 [Compound 24, (((3′S,5S,7′R)-10′-((2,4-difluorobenzyl)carbamoyl)-3-methoxy-3′-methyl-1′,11′-dioxo-1′,4′,5′,11′-tetrahydro-3′H,4H,7′H-spiro[isoxazole-5,6′-[2,7]methanopyrido[1,2-a][1,4]diazonin]-12′-yl)oxy)methyl ((S)-1-(phosphonooxy)propan-2-yl) carbonate]	17.1	0.00229	5000 (≈ 7 mM)		
CC1=NO[C@@]2(CC[C@H](C)N3C[C@H]2n2cc(C(=O)NCc4ccc(F)cc4F)c(=O)c(OCOC(=O)OCCCCOP(=O)(O)O)c2C3=O)C1 [Compound 34, (((3′S,5S,7′R)-10′-((2,4-difluorobenzyl)carbamoyl)-3,3′-dimethyl-1′,11′-dioxo-1′,4′,5′,11′-tetrahydro-3′H,4H,7′H-spiro[isoxazole-5,6′-[2,7]methanopyrido[1,2-a][1,4]diazonin]-12′-yl)oxy)methyl (4-(phosphonooxy)butyl) carbonate]				50	4890 (≈ 6.86 mM)
CC1=NO[C@@]2(CC[C@H](C)N3C[C@H]2n2cc(C(=O)NCc4ccc(F)cc4F)c(=O)c(OCOC(=O)N(CCOP(=O)(O)O)CC(=O)O)c2C3=O)C1 [Compound 46, N-(((((3′S,5S,7′R)-10′-((2,4-difluorobenzyl)carbamoyl)-3,3′-dimethyl-1′,11′-dioxo-1′,4′,5′,11′-tetrahydro-3′H,4H,7′H-spiro[isoxazole-5,6′-[2,7]methanopyrido[1,2-a][1,4]diazonin]-12′-yl)oxy)methoxy)carbonyl)-N-(2-(phosphonooxy)ethyl)glycine]	50		4980 (≈ 6.72 mM)		
CC1=NO[C@@]2(CC[C@H](C)N3C[C@H]2n2cc(C(=O)NCc4ccc(F)cc4F)c(=O)c(OCOC(=O)OC(C)(C)C(C)OP(=O)(O)O)c2C3=O)C1 (stereo partly drawn) [Compound 55, (((3′S,5S,7′R)-10′-((2,4-difluorobenzyl)carbamoyl)-3,3′-dimethyl-1′,11′-dioxo-1′,4′,5′,11′-tetrahydro-3′H,4H,7′H-spiro[isoxazole-5,6′-[2,7]methanopyrido[1,2-a][1,4]diazonin]-12′-yl)oxy)methyl (2-methyl-3-(phosphonooxy)butan-2-yl) carbonate]			4600 (≈ 6.33 mM)		
CC1=NO[C@@]2(CC[C@H](C)N3C[C@H]2n2cc(C(=O)NCc4ccc(F)cc4F)c(=O)c(OCOC(=O)OC(C)C(C)(C)OP(=O)(O)O)c2C3=O)C1 (stereo partly drawn) [Compound 56, (((3′S,5S,7′R)-10′-((2,4-difluorobenzyl)carbamoyl)-3,3′-dimethyl-1′,11′-dioxo-1′,4′,5′,11′-tetrahydro-3′H,4H,7′H-spiro[isoxazole-5,6′-[2,7]methanopyrido[1,2-a][1,4]diazonin]-12′-yl)oxy)methyl (3-methyl-3-(phosphonooxy)butan-2-yl) carbonate]			4240 (≈ 5.84 mM)		
